Entries after “also recorded” stand apart in the source; their conditions may differ.
How the values were obtained:
[1] = tested on: control and cystic cholangiocytes; experiment: cAMP production (Bridge-It cAMP assay) in cholangiocytes treated with TGR5 agonists; type: cell-based, rat, human; conditions: 25 μM, 30 minutes; for cAMP production: ciliated cystic cholangiocytes (PCK rat, human ADPKD)
Description: Production of cAMP was detected using a Bridge-It cAMP designer cAMP assay (Mediomics, St. Lou is, MO) according to manufacturer's protocol. […] Forskolin (10^−6M for 15 min) served as a control.

ADPKD cholangiocytes = experiment: Three-dimensional culture of cystic cholangiocytes, cyst growth; type: cell-based, human; conditions: ADPKD cholangiocytes with TGR5 depleted by shRNA
Text: Control and cystic rat cholangiocytes (derived from wild type and PCK rats, respectively), and control and cystic human cholangiocytes (derived from healthy humans and ADPKD patients, respectively) were used. Cells were isolated and maintained as described elsewhere (Masyuk et al., Hepatol 2013, 58:409-421). […] C1 and C2 were synthesized in the Sanford-Burnham Medical Research Institute at >95% purity by HPLC following a procedure outlined elsewhere (Piotrowski et al., ACS Med Chem Lett 2013, 4:63-68; and Evans et al., J Med Chem 2009, 52:7962-7965). PCK and ADPKD cholangiocytes were stably transfected with TGR5 shRNAs or control shRNAs (Santa Cruz Biotechnology, Santa Cruz, Calif.). Rodents were maintained on a standard diet and water ad lib. […]
Cultured cholangiocytes and cystic bile ducts freshly isolated by microdissection from PCK rats were grown in three-dimensional matrices as described elsewhere (Masyuk et al., Am J Pathol 2014, 184:110-121; and Masyuk et al., Am J Pathol 2004, 165:1719-1730) and treated with TLCA and OA (both, […]) daily. […] The circumferential area of each cyst was measured using ImageJ software (National Institutes of Health, Bethesda, Md.) as described elsewhere (Masyuk et al., Am J Pathol 2014, 184:110-121). Data were expressed as percent change at day 3 compared to day 1.

Gαi and Gαs proteins = experiment: Western blot of Gαi and Gαs proteins in control and cystic cholangiocytes with or without OA; type: cell-based
Description: Western blotting. Briefly, proteins were separated by 4-15% SDSPAGE, transferred to nitrocellulose membranes (Bio-Rad, Hercules, Calif.), and incubated overnight at 4° C. with antibodies against TGR5 (Santa Cruz Biotechnology), Gas (Abcam, Cambridge, Mass.), and Gαi (Cell Signaling Technology, Danvers, Mass.). Actin antibody was used to assure equal protein loading. Membranes were washed and incubated for 1 hour at room temperature with the corresponding horseradish peroxidase-conjugated (Invitrogen) or IRDYE® 680 or 800 (Odyssey) secondary antibodies. Bands were visualized with the ECL Plus Western Blotting Detection kit (BD Biosciences, San Jose, Calif.) or Odyssey Li-Cor Scanner (Li-Cor, Lincoln, Nebr.).

[2] = tested on: cystic bile ducts from PCK rats; experiment: Three-dimensional culture of cystic bile ducts, cyst growth; type: cell-based, rat; conditions: 25 μm daily, day 3 vs day 1, compared to untreated
Description: Cultured cholangiocytes and cystic bile ducts freshly isolated by microdissection from PCK rats were grown in three-dimensional matrices as described elsewhere (Masyuk et al., Am J Pathol 2014, 184:110-121; and Masyuk et al., Am J Pathol 2004, 165:1719-1730) and treated with TLCA and OA (both, […]) daily. Images were taken at days 1 (i.e., 24 hours after seeding) and 3. The circumferential area of each cyst was measured using ImageJ software (National Institutes of Health, Bethesda, Md.) as described elsewhere (Masyuk et al., Am J Pathol 2014, 184:110-121). Data were expressed as percent change at day 3 compared to day 1.

PCK rats = experiment: Hepato-renal cystogenesis in PCK rats treated with OA for 6 weeks; type: in vivo; conditions: 25 mg/kg bw intraperitoneally daily; for hepato-renal cystogenesis: 25 mg/kg
Text: (§1) Control PCK rats (n=8) received equal doses of DMSO. Drug concentrations were adjusted to the animal weight weekly. After 6 weeks of treatment, rats were sacrificed and body and organ weights assessed. […] Hepatic and renal cystic and fibrotic areas were expressed as a percentage of total hepatic or renal parenchyma, respectively.

[3] = tested on: Gαi and Gαs proteins, TGR5; conditions: PCK rats in vivo, immunofluorescence
Text: as §1

[4] = ciliated control cholangiocytes (rat, human)
[5] = non-ciliated control and cystic cholangiocytes (rat, human)

Row | Structure (SMILES) | cAMP levels [1, 4] | cAMP production [1] | cAMP levels [1, 5] | growth of cystic structures in 3-D culture after TGR5 depletion (ADPKD cholangiocytes) | expression of Gαi and Gαs proteins (Gαi and Gαs proteins) | growth of cystic structures (cyst expansion) in 3-D culture [2] | mortality or toxicity (e.g., hair or weight loss) (PCK rats) | tolerability (PCK rats) | increase of hepatic cystic areas (PCK rats; compared to control PCK rats) [%] | increase of hepatic fibrotic areas (PCK rats; compared to control PCK rats) [%] | increase of kidney weights (PCK rats; compared to control PCK rats) [%] | increase of liver weights (PCK rats; compared to control PCK rats) [%] | increase of renal cystic areas (PCK rats; compared to control PCK rats) [%] | increase of renal fibrotic areas (PCK rats; compared to control PCK rats) [%] | hepato-renal cystogenesis (PCK rats; listed as Oleanolic Acid) | hepato-renal cystogenesis (PCK rats; listed as oleanolic acid) | expression of Gα proteins [3]
1 | CCNc1nc2c(c(C(N)=O)n1)CN(C(=O)CCc1ccc(OC(F)(F)F)cc1)CC2 [C1, 2-(ethylamino)-6-(3-(4-(trifluoromethoxy)phenyl)propanoyl)-5,6,7,8-tetrahydropyrido[4,3-d]pyrimidine-4-carbox-amide] | decreased cAMP levels | increasing cAMP production | elevated cAMP | – | – | – | – | – | – | – | – | – | – | – | – | – | –
2 | Cc1onc(-c2ccccc2Cl)c1C(=O)N(C)c1ccc(Cl)cc1 [C2, 3-(2-chlorophenyl)-N-(4-chlorophenyl)-N,5-dimethylisoxazole-4-carboxamide] | decreased cAMP levels | increasing cAMP production | elevated cAMP | – | – | – | – | – | – | – | – | – | – | – | – | – | –
3 | CC1(C)CC[C@]2(C(=O)O)CC[C@]3(C)C(=CC[C@@H]4[C@@]5(C)CC[C@H](O)C(C)(C)[C@@H]5CC[C@]43C)[C@@H]2C1 [OA, oleanolic acid] | decreased cAMP levels | increasing cAMP production | elevated cAMP | abolished the effects | no effects; also recorded: did not affect | accelerated cyst expansion | no mortality or toxicity | well tolerated | 31 | 20 | 11 | 12 | 19 | 30 | Increases | increases | does not affect

— patent US20200009248A1, “TARGETING TGR5 TO TREAT DISEASE” (Mayo Foundation for Medical Education and Research, priority 2014, published 2020)
